In patent US6080733A, “Thioureido-cyclodextrins, utilized in particular to solubilize anti-tumor, and antiparasitic agents and their preparation processes” (Centre National de la Recherche Scientifique, priority 1996, dated 2000):
Several values for one entry are separate records, joined by “and”; a condition that tells them apart may be missing. Equal values may be shown once. Values belong to the compound of their own block, whether it stands above or below them.

Experiments:
[1] = solubility in water of the thioureido-cyclodextrins; type: physicochemical
[2] = cited from earlier work

solubility [1]: 710000 µg/mL and 518000 µM
Compound: CO[C@H]1O[C@H](CNC(=S)NC[C@H]2O[C@@H]3O[C@H]4[C@H](O)[C@@H](O)[C@@H](O[C@H]5[C@H](O)[C@@H](O)[C@@H](O[C@H]6[C@H](O)[C@@H](O)[C@@H](O[C@H]7[C@H](O)[C@@H](O)[C@@H](O[C@H]8[C@H](O)[C@@H](O)[C@@H](O[C@H]9[C@H](O)[C@@H](O)[C@@H](O[C@H]2[C@H](O)[C@H]3O)O[C@@H]9CO)O[C@@H]8CO)O[C@@H]7CO)O[C@@H]6CO)O[C@@H]5CO)O[C@@H]4CO)[C@@H](O)[C@H](O)[C@H]1O [compound n°2]

Compound: CC(=O)O[C@@]12CO[C@@H]1C[C@H](O)[C@@]1(C)C(=O)[C@H](O)C3=C(C)[C@@H](OC(=O)[C@H](O)[C@@H](NC(=O)OC(C)(C)C)c4ccccc4)C[C@@](O)([C@@H](OC(=O)c4ccccc4)[C@H]21)C3(C)C [Taxotere]
solubility in water of Taxotere, raised by encapsulation ([2]; encapsulated in 6^I -S-α-maltosyl-6^I -thiocyclo-maltaheptaose (WO-A-95/19994)): 6500 µg/mL | solubility in water of Taxotere ([2]; without cyclodextrin): 4 µg/mL

solubility in water [1]: 558 g/l and 373 mM
Compound: CO[C@H]1O[C@H](CNC(=S)NC[C@H]2O[C@@H]3O[C@H]4[C@H](O)[C@@H](O)[C@@H](O[C@H]5[C@H](O)[C@@H](O)[C@@H](O[C@H]6[C@H](O)[C@@H](O)[C@@H](O[C@H]7[C@H](O)[C@@H](O)[C@@H](O[C@H]8[C@H](O)[C@@H](O)[C@@H](O[C@H]9[C@H](O)[C@@H](O)[C@@H](O[C@H]2[C@H](O)[C@H]3O)O[C@@H]9CO)O[C@@H]8CO)O[C@@H]7CO)O[C@@H]6CO)O[C@@H]5CO)O[C@@H]4CO)[C@@H](OC(C)=O)[C@H](OC(C)=O)[C@H]1OC(C)=O [compound n°3]

solubility [1]: 775000 µg/mL and 640000 µM
Compound: CNC(=S)NC[C@H]1O[C@@H]2O[C@H]3[C@H](O)[C@@H](O)[C@@H](O[C@H]4[C@H](O)[C@@H](O)[C@@H](O[C@H]5[C@H](O)[C@@H](O)[C@@H](O[C@H]6[C@H](O)[C@@H](O)[C@@H](O[C@H]7[C@H](O)[C@@H](O)[C@@H](O[C@H]8[C@H](O)[C@@H](O)[C@@H](O[C@H]1[C@H](O)[C@H]2O)O[C@@H]8CO)O[C@@H]7CO)O[C@@H]6CO)O[C@@H]5CO)O[C@@H]4CO)O[C@@H]3CO [compound n°1, 6^I -desoxy-6^I -(N'-methylthioureido) cyclomaltoheptaose]
